Experimental data from patent US8217172B2, “Solid forms of 1-ethyl-3-(5-(5-fluoropyridin-3-yl)-7-(pyrimidin-2-yl)-1H-benzo[d]imidazol-2-yl)urea” (Vertex Pharmaceuticals Incorporated, priority 2007, dated 2012).
Values after ≈ are worked out from the molar mass of the structure shown. Where two headings read alike, the source gives them in different places.

What was measured:
Format in all cases: physicochemical
[1] = Solubility in various media (equilibration on a shaking bed for 24 hours, HPLC); conditions: for solubility at 24 h: thermodynamic from solid
Method: (§1) Solubility: The solubility of form IA in various media was determined at ambient conditions by equilibrating aliquots of the drug powder with the solvents on a shaking bed for 24 hours. The samples were centrifuged, the saturated solutions of the drug were then separated and analyzed by HPLC. The sample volume was 100 μL and the target concentration was 10 mg/mL. The saturated solutions were diluted appropriately and analyzed by HPLC.
Solubility: Solubility of form IIC in various media was determined at ambient conditions by equilibrating aliquots of the drug powder with the solvents on a shaking bed for 24 hours. Samples were spun and the supernatant was carefully separated and analyzed by HPLC at the 24-hour timepoint using a stability-indicating method. […] Some variability may occur between lots of a particular sample.
as §1, with “Solubility” for “The solubility”, “IIIB” for “IA”, “medium” for “solvents”, “μL,” for “μL”, “mg/ml.” for “mg/mL.”

[2] = Dynamic Vapor Sorption (DVS), step isothermal study; conditions: 25° C.
Method: (§2) Dynamic Vapor Sorption (DVS): A step isothermal study (25° C.) was conducted on a representative sample of form IA using a VTI SGA 100 Symmetric Vapor Sorption Analyzer. An aliquot of approximately 10 mg was weighed in an open platinum dish and exposed to different levels of humidity at 25° C. Relative humidity (RH) steps were from 5% to 95% (adsorption) and from 95% to 5% in increments of 5% RH (desorption). The equilibration criterion was 0.0100 wt % change in 5 min, with a max equilibration time of 180 min. The sample picked up ˜8 wt % moisture at 95% relative humidity (RH).
as §2, with “a” for “a representative”, “form IIA” for “form IA”, “The material” for “The sample”, “up ˜11” for “up ˜8”
as §2, with “a” for “a representative”, “form IIC” for “form IA”, “The material” for “The sample”, “up ˜4” for “up ˜8”
Water Vapor Sorption analysis: Vapor Sorption analysis of a sample of form IIIB was done using a SGA-100 Vapor Sorption Analyzer (VTI, Hialeah, Fla.). A sample with weight of approximately 7-12 mg was measured isothermally at 25° C. Data was collected by Isotherm software and analyzed by Microsoft Excel with a VTI macro (VTI, Hialeah, Fla.). The sample gained about 4.6% in weight from 5 to 95% RH (25° C.).

[3] = Stability analysis (chemical stability by HPLC, physical stability by XRPD)
Source text: In some embodiments, less than 25% of the form of Compound 1 decomposes, in some embodiments, less than about 20%, less than about 15%, less than about 10%, less than about 5%, less than about 3%, less than about 1%, less than about 0.5% of the form of Compound 1 decomposes under the conditions specified. In some embodiments, no detectable amount of the form of Compound 1 decomposes.
In some embodiments, less than 25% of the form of Compound 1 changes into one or more different physical forms when subjected to specified conditions, In some embodiments, less than about 20%, less than about 15%, less than about 10%, less than about 5%, less than about 3%, less than about 1%, less than about 0.5% of the form of Compound 1 changes into one or more different physical forms of Compound 1 when subjected to specified conditions. In some embodiments, no detectable amount of the form of Compound 1 changes into one or more different physical forms of Compound 1.

[4] = various storage conditions, including 40° C./75% RH (e.g., open container)

In the case of `CCNC(=O)Nc1nc2cc(-c3cncc(F)c3)cc(-c3ncccn3)c2[nH]1` [Form IA, crystalline 1-ethyl-3-(5-(5-fluoropyridin-3-yl)-7-(pyrimidin-2-yl)-1H-benzo[d]imidazol-2-yl)urea], the solubility at 24 h ([1]; 0.05 M potassium biphthalate-sodium hydroxide buffer, pH 3, aqueous buffer, Potassium biphthalate sodium hydroxide, pH 3, read-out: Solubility in 0.05M Buffers at Different pH) is reported as 70 µg/mL (≈ 185 µM), the solubility at 24 h ([1]; 0.05 M potassium biphthalate-sodium hydroxide buffer, pH 5, aqueous buffer, Potassium biphthalate sodium hydroxide, pH 5, read-out: Solubility in 0.05M Buffers at Different pH) is reported as < 1 µg/mL and the solubility at 24 h ([1]; 0.05 M potassium chloride-hydrochloric acid buffer, pH 1, simulated gastric fluid, Potassium chloride hydrochloric acid, pH 1, read-out: Solubility in 0.05M Buffers at Different pH) is reported as 2240 µg/mL (≈ 5940 µM). For the same compound, the solubility at 24 h ([1]; 0.05 M potassium phosphate monobasic-sodium hydroxide buffer, pH 7, aqueous buffer, Potassium phosphate monobasic-sodium hydroxide, pH 7, read-out: Solubility in 0.05M Buffers at Different pH) was < 1 µg/mL, the solubility at 24 h ([1]; 0.05 M potassium phosphate monobasic-sodium hydroxide buffer, pH 9, aqueous buffer, Potassium phosphate monobasic-sodium hydroxide, pH 9, read-out: Solubility in 0.05M Buffers at Different pH) was < 1 µg/mL and the solubility at 24 h ([1]; 0.1N HCl, pH 1.29, simulated gastric fluid, 0.1N HCL, pH 1.29, ambient, 24 h, read-out: Solubility) was 13700 µg/mL (≈ 36200 µM). The solubility at 24 h ([1]; 1% SLS (sodium lauryl sulfate), pH 7.87, aqueous with cosolvent or surfactant or cyclodextrin, 1% SLS (Sodium Lauryl Sulfate), pH 7.87, ambient, 24 h, read-out: Solubility) was 75 µg/mL (≈ 199 µM), the solubility at 24 h ([1]; 1% Tween 80 in water, aqueous with cosolvent or surfactant or cyclodextrin, 1% Tween80 in water, ambient, 24 h, read-out: Solubility) was 10 µg/mL (≈ 26.5 µM) and the solubility at 24 h ([1]; 10% Cremophor EL, pH 6.48, aqueous with cosolvent or surfactant or cyclodextrin, 10% Cremophor EL, pH 6.48, ambient, 24 h, read-out: Solubility) was 66 µg/mL (≈ 175 µM). The solubility at 24 h ([1]; 10% Cremophor in water, aqueous with cosolvent or surfactant or cyclodextrin, 10% Cremophor in water, ambient, 24 h, read-out: Solubility) was 80 µg/mL (≈ 212 µM), the solubility at 24 h ([1]; 10% Tween 80, pH 6.22, aqueous with cosolvent or surfactant or cyclodextrin, 10% Tween 80, pH 6.22, ambient, 24 h, read-out: Solubility) was 67 µg/mL (≈ 178 µM) and the solubility at 24 h ([1]; 10% Vit E TPGS, pH 5.57, aqueous with cosolvent or surfactant or cyclodextrin, 10% Vit E TPGS, pH 5.57, ambient, 24 h, read-out: Solubility) was 87 µg/mL (≈ 231 µM). The solubility at 24 h ([1]; D5W (dextrose 5% in water), saline or isotonic, D5W (Dextrose 5% in water), ambient, 24 h, read-out: Solubility) was < 1 µg/mL, the solubility at 24 h ([1]; Fasted SIF (Dressman's recipe 1), fassif, Dressman's recipe 1-Fasted SIF, ambient, 24 h, read-out: Solubility) was < 1 µg/mL and the solubility at 24 h ([1]; Fed SIF (simulated intestinal fluid, Dressman's recipe 1), fessif, Dressman's recipe 1-Fed SIF (Simulated Intestinal Fluid), ambient, 24 h, read-out: Solubility) was 10 µg/mL (≈ 26.5 µM). The solubility at 24 h ([1]; Miglyol 810, oil or lipid, Miglyol 810, ambient, 24 h, read-out: Solubility) was 17 µg/mL (≈ 45 µM), the solubility at 24 h ([1]; PBS, aqueous buffer, PBS (Phosphate Buffer Saline), ambient, 24 h, read-out: Solubility) was < 1 µg/mL and the solubility at 24 h ([1]; PEG 400, pH 7.54, organic solvent or mixture, PEG 400, pH 7.54, ambient, 24 h, read-out: Solubility) was 1620 µg/mL (≈ 4300 µM). For the same compound, the solubility at 24 h ([1]; SGF (simulated gastric fluid, USP recipe), simulated gastric fluid, USP recipe-SGF (Simulated Gastric Fluid), ambient, 24 h, read-out: Solubility) was 4920 µg/mL (≈ 13000 µM), the solubility at 24 h ([1]; Tris buffer, pH 7 (1.0 M), pH 7.2, aqueous buffer, Tris buffer, pH 7 (1.0M), pH 7.20, ambient, 24 h, read-out: Solubility) was < 1 µg/mL and the solubility ([1]; at a pH of about 1) was “about 2 mg/mL”. For the same compound, the solubility at 24 h ([1]; deionized water, pH 7.14, water, Deionized Water, pH 7.14, ambient, 24 h, read-out: Solubility) was < 1 µg/mL, the solubility at 24 h ([1]; ethanol, organic solvent or mixture, Ethanol (second entry, pH NA), ambient, 24 h, read-out: Solubility) was 220 µg/mL (≈ 583 µM) and the solubility at 24 h ([1]; ethanol, pH 6.71, organic solvent or mixture, Ethanol (first entry), pH 6.71, ambient, 24 h, read-out: Solubility) was 56 µg/mL (≈ 148 µM). For the same compound, the solubility at 24 h ([1]; octanol, organic solvent or mixture, Octanol, ambient, 24 h, read-out: Solubility) was 175 µg/mL (≈ 464 µM), the solubility at 24 h ([1]; pH 1, simulated gastric fluid, at a pH of about 1, read-out: solubility) was ≥ 2000 µg/mL and the solubility at 24 h ([1]; propylene glycol, pH 6.04, organic solvent or mixture, Propylene Glycol, pH 6.04, ambient, 24 h, read-out: Solubility) was 359 µg/mL (≈ 951 µM). For the same compound, the hygroscopicity ([2]; DVS) was “moderate hygroscopicity”, the hydrate formation ([2]; DVS, 5% to 95% RH) was “did not form a hydrate” and the “release of adsorbed water in the desorption stage” value ([2]; DVS, 95% to 5% RH) was “All adsorbed water was released”. The “moisture picked up at 95% relative humidity (RH)” value ([2]; DVS, adsorption 5% to 95% RH) was ~8 wt %, the “weight gain from 5% to 95% relative humidity” value ([2]; step isothermic study (DVS)) was 8% and the “remains chemically stable for at least” value ([3]; 40° C./75% relative humidity) was ≥ 6 months. For the same compound, the “remains in substantially the same physical form for at least” value ([3]; 40° C./75% relative humidity) was ≥ 6 months, the “stability when subjected to mild mechanical stress” value ([3]; mild mechanical stress such as grinding) was “chemically and physically stable” and the “chemically and physically stable for at least about” value [3, 4] was “at least 2 weeks”. The “chemically and physically stable for at least about (e.g. value)” value [3, 4] was ≥ 6 months.
